Data published in patent US10508077B2 (FORMA Therapeutics, Inc., priority 2015, dated 2019).

What was measured:
[1] = molecular target: T1, Recombinant N-terminal GST tag full-length human HDAC8 (Homo sapiens, UniProt Q9BY41); test: HDAC8 probe binding assay, time resolved fluorescence (TRF); details: fluorescein labeled pan-HDAC inhibitor probe, 16 hours incubation, compounds listed under IC50 range headings
T1 construct: Recombinant N-terminal GST tag full-length human HDAC8; purchased SignalChem H90-30G-1000; host or cells: Sf9 insect cells (baculovirus)
T1 sequence (Q9BY41 1-377): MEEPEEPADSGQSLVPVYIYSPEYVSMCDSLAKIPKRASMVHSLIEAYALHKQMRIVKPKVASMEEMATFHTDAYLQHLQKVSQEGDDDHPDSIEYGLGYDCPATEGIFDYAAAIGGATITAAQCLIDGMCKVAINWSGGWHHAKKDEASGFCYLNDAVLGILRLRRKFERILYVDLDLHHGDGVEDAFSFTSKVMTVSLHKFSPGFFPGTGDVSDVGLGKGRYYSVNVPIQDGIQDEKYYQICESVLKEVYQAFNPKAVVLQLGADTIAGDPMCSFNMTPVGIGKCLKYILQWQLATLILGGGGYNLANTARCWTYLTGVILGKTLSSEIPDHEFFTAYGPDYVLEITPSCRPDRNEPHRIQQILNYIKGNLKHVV
Method: The HDAC8 probe binding assay was performed using a time resolved fluorescence (TRF) assay format. Recombinant N-terminal GST tag full-length human HDAC8 was expressed and purified from baculovirus in Sf9 insect cells (SignalChem, #H90-30G-1000), Each assay was performed in 1536 black well microplates (Corning, #3936) in a final volume of 4 μL in assay buffer containing 50 mM HEPES (pH 7.5), 50 mM KCl, 50 mM NaCl, 0.5 mM GSH (L-Glutathione reduced, Sigma #G4251), 0.03% BGG (0.22 μM filtered, Sigma, #G7516-25G), and 0.01% Triton X-100 (Sigma, #T9284-10L). 20 nL of 10-point, 3-fold serial dilution in DMSO was pre-dispensed into respective wells of 1536 assay plates for a final test concentration range of 25 μM to 1.3 nM respectively. The final concentration in the assay of HDAC8 and probe (a fluorescein labeled pan-HDAC inhibitor) was 2.5 nM and 1.5 nM respectively. 2 μL of 2× probe and 2× anti-GST Terbium (Cisbio, #61GSTXLB) was added to assay plates followed by 2 μL of 2× HDAC8. Plates were incubated for 16 hours at room temperature before time resolved fluorescence was read on the Envision (Excitation at 340 nm, and Emission at 485 nm and 535 nm, Perkin Elmer).
Data from HDAC8 Assays were reported as percent inhibition (inh) compared with control wells based on the following equation: % inh=1−((FLU−AveLow)/(AveHigh−AveLow)) where FLU=measured time resolved fluorescence. AveLow=average time resolved fluorescence of no enzyme control (n=32). AveHigh=average time resolved fluorescence of DMSO control (n=32). IC50 values were determined by curve fitting of the standard 4 parameter logistic fitting algorithm included in the Activity Base software package: IDBS XE Designer Model205. Data is fitted using the Levenburg Marquardt algorithm.

[2] = molecular target: T2, Full length human recombinant HDAC8 protein (Homo sapiens, UniProt Q9BY41); test: In vitro histone deacetylase assay: enzymatic HDAC8 assay, electrophoretic mobility shift; type: biochemical; details: substrate RHKK(Ac)-NH2, 1 nM enzyme, compounds listed under IC50 range headings
T2 construct: Full length human recombinant HDAC8 protein was expressed in baculoviral system; made in house
T2 sequence (Q9BY41 1-377): T1 sequence (Q9BY41 1-377)
Method in brief: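 Readout was microfluidic mobility-shift separation of deacetylated product from fluorescent RHKK(Ac)-NH2 substrate (2 µM), after reaction with 1 nM recombinant full-length human HDAC8 at 25 °C, pH 7.5, stopped with SDS. Twelve 3-fold-spaced concentrations tested; product/sum ratios normalized to controls and fitted with a 4-parameter model for IC50.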

| SMILES | IC50 [1] [nM] | IC50 [2] [nM] |
| --- | --- | --- |
| CC(C)(C)OC(=O)N1CCCCC12CCN(c1ccccc1/C=C/C(=O)NO)CC2 [Example I-538, tert-butyl (E)-9-(2-(3-(hydroxyamino)-3-oxoprop-1-en-1-yl)phenyl)-1,9-diazaspiro[5.5]undecane-1-carboxylate] | ≤ 1000 | < 1000 |
| O=C(/C=C/c1ccccc1N1CCC(NC(=O)c2ccc3[nH]ccc3c2)CC1)NO [Example I-153, (E)-N-(1-(2-(3-(hydroxyamino)-3-oxoprop-1-en-1-yl)phenyl)piperidin-4-yl)-1H-indole-5-carboxamide] | ≤ 1000 | < 1000 |
| Cn1ccc(S(=O)(=O)NC2CCN(c3ccccc3/C=C/C(=O)NO)CC2)n1 [Example I-219, (E)-N-hydroxy-3-(2-(4-((1-methyl-1H-pyrazole)-3-sulfonamido)piperidin-1-yl)phenyl)acrylamide] | ≤ 1000 | < 1000 |
| O=C(/C=C/c1ccccc1NC(=O)c1ccccc1Oc1ccccc1)NO [Example I-71, (E)-N-(2-(3-(hydroxyamino)-3-oxoprop-1-enyl)phenyl)-2-phenoxybenzamide] | ≤ 1000 | < 1000 |
| O=C(/C=C/c1cc(OC(F)(F)F)ccc1NC(=O)c1ccccc1Oc1ccc(F)cc1)NO [Example I-557, 2-(4-fluorophenoxy)-N-{2-[(1E)-2-(hydroxycarbamoyl)eth-1-en-1-yl]-4-(trifluoromethoxy)phenyl}benzamide] | ≤ 1000 | < 1000 |
| Cc1ccc(CC(=O)Nc2ccccc2/C=C/C(=O)NO)cc1 [Example I-66, (E)-N-hydroxy-3-(2-(2-(p-tolyl)acetamido)phenyl)acrylamide] | ≤ 1000 | < 1000 |
| COc1ccc(/C=C/C(=O)NO)c(NC(=O)c2ccccc2Oc2ccc(Cl)cc2F)c1 [II-37, 2-(4-chloro-2-fluorophenoxy)-N-{2-[(1E)-2-(hydroxycarbamoyl)eth-1-en-1-yl]-5-methoxyphenyl}benzamide] | ≤ 1000 | < 1000 |
| O=C(/C=C/c1ccccc1NCc1c[nH]nc1-c1ccc(C(F)(F)F)cc1)NO [Example I-104] | ≤ 1000 | < 1000 |
| O=C(/C=C/c1ccccc1N1CCN(Cc2nccs2)CC1)NO [Example I-170, (E)-N-hydroxy-3-(2-(4-(thiazol-2-ylmethyl)piperazin-1-yl)phenyl)acrylamide] | ≤ 1000 | < 1000 |
| Cc1onc(-c2ccc(F)cc2)c1C(=O)Nc1ccccc1/C=C/C(=O)NO [Example I-323, (E)-3-(4-fluorophenyl)-N-(2-(3-(hydroxyamino)-3-oxoprop-1-en-1-yl)phenyl)-5-methylisoxazole-4-carboxamide] | ≤ 1000 | < 1000 |
| O=C(/C=C/c1ccccc1NC(=O)c1cnc(N2CCOCC2)s1)NO [Example I-319, (E)-N-(2-(3-(hydroxyamino)-3-oxoprop-1-en-1-yl)phenyl)-2-morpholinothiazole-5-carboxamide] | ≤ 1000 | < 1000 |
| O=C(/C=C/c1ccccc1N1CCC2(CCNC2)C1)NO (centres unmarked) [Example I-113, (E)-3-(2-(2,7-diazaspiro[4.4]nonan-2-yl)phenyl)-N-hydroxyacrylamide 2,2,2-trifluoroacetate] | ≤ 1000 | < 1000 |
| Cc1nc(C)c(CN2CCN(c3ccccc3/C=C/C(=O)NO)CC2)s1 [Example I-315, (E)-3-(2-(4-((2,4-dimethylthiazol-5-yl)methyl)piperazin-1-yl)phenyl)-N-hydroxyacrylamide] | ≤ 1000 | < 1000 |
| O=C(/C=C/c1ccccc1NC(=O)c1ccncc1N1CCOCC1)NO [Example I-313, (E)-N-(2-(3-(hydroxyamino)-3-oxoprop-1-en-1-yl)phenyl)-3-morpholinoisonicotinamide] | ≤ 1000 | < 1000 |
| O=C(/C=C/c1ccccc1NC(=O)c1ncccc1Oc1ccccc1)NO [Example I-537, N-{2-[(1E)-2-(hydroxycarbamoyl)eth-1-en-1-yl]phenyl}-3-phenoxypyridine-2-carboxamide] | ≤ 1000 | < 1000 |
| O=C(/C=C/c1ccccc1NCc1cccc(CN2CCOCC2)c1)NO [Example I-101, (E)-N-hydroxy-3-(2-((3-(morpholinomethyl)benzyl)amino)phenyl)acrylamide] | ≤ 1000 | < 1000 |
| O=C(/C=C/c1ccccc1N1CCN(C(=O)c2ccc3[nH]ccc3c2)CC1)NO [Example I-208, (E)-3-(2-(4-(1H-indole-5-carbonyl)piperazin-1-yl)phenyl)-N-hydroxyacrylamide] | ≤ 1000 | < 1000 |
| CCn1nc(C)cc1C(=O)Nc1ccccc1/C=C/C(=O)NO [Example I-274, (E)-1-ethyl-N-(2-(3-(hydroxyamino)-3-oxoprop-1-en-1-yl)phenyl)-3-methyl-1H-pyrazole-5-carboxamide] | ≤ 1000 | < 1000 |
| O=C(/C=C/c1ccccc1NC(=O)CC1CCCC1)NO [Example I-68, (E)-3-(2-(2-cyclopentylacetamido)phenyl)-N-hydroxyacrylamide] | ≤ 1000 | < 1000 |
| O=C(/C=C/c1ccccc1NC(=O)c1ccccc1Oc1ccc(C(F)(F)F)nc1)NO [Example I-540, (E)-N-(2-(3-(hydroxyamino)-3-oxoprop-1-en-1-yl)phenyl)-2-((6-(trifluoromethyl)pyridin-3-yl)oxy)benzamide] | ≤ 1000 | < 1000 |
| O=C(/C=C/c1ccccc1NC(=O)c1ccccc1Oc1ccc(Cl)cc1F)NO [Example I-534, (E)-2-(4-chloro-2-fluorophenoxy)-N-(2-(3-(hydroxyamino)-3-oxoprop-1-en-1-yl)phenyl)benzamide] | ≤ 1000 | < 1000 |
| Cc1oc(C(C)(C)C)cc1C(=O)Nc1ccccc1/C=C/C(=O)NO [Example I-265, (E)-5-(tert-butyl)-N-(2-(3-(hydroxyamino)-3-oxoprop-1-en-1-yl)phenyl)-2-methylfuran-3-carboxamide] | ≤ 1000 | < 1000 |
| O=C(/C=C/c1ccccc1N1CCN(C(=O)c2cn[nH]c2)CC1)NO [Example I-206] | ≤ 1000 | < 1000 |
| Cc1cc(C(=O)NC2CCN(c3ccccc3/C=C/C(=O)NO)CC2)n[nH]1 [Example I-134, (E)-N-(1-(2-(3-(hydroxyamino)-3-oxoprop-1-en-1-yl)phenyl)piperidin-4-yl)-5-methyl-1H-pyrazole-3-carboxamide] | ≤ 1000 | < 1000 |
| O=C(/C=C/c1ccncc1NC(=O)c1cccc(C(F)(F)F)c1)NO [Example I-123, (E)-N-(4-(3-(hydroxyamino)-3-oxoprop-1-enyl)pyridin-3-yl)-3-(trifluoromethyl)benzamide] | ≤ 1000 | < 1000 |
| O=C(/C=C/c1ccccc1N1CCC(NC(=O)c2ccnn2C(F)F)CC1)NO [Example I-148] | ≤ 1000 | < 1000 |
| CC(C)(C)OC(=O)N1CCN(c2ccccc2/C=C/C(=O)NO)C(=O)C1 [Example I-263, tert-butyl (E)-4-(2-(3-(hydroxyamino)-3-oxoprop-1-en-1-yl)phenyl)-3-oxopiperazine-1-carboxylate] | ≤ 1000 | < 1000 |
| O=C(/C=C/c1ccccc1N1CCN(Cc2ccccc2)CC1=O)NO [Example I-495, (E)-3-(2-(4-benzyl-2-oxopiperazin-1-yl)phenyl)-N-hydroxyacrylamide] | ≤ 1000 |  |
| O=C(/C=C/c1cc(Cl)ccc1NC(=O)c1cccnc1Oc1ccc(Cl)cc1)NO [Example I-572, N-{4-chloro-2-[(1E)-2-(hydroxycarbamoyl)eth-1-en-1-yl]phenyl}-2-(4-chlorophenoxy)pyridine-3-carboxamide] | ≤ 1000 |  |
